The record followed here is ChEMBL document CHEMBL3217584, “Pharmacokinetics of bendamustine in the central nervous system: chemoinformatic screening followed by validation in a murine model” (Medchemcomm, 2012).

The test system of data set [1] is Brain. The data set can be described thus: Drug uptake in C57BL/6J mouse brain at 70 mg/kg, ip measured at 20 to 40 mins by CE-UV analysis. Format: ADME, organism-based. To be noted: in vivo. The arrangement: dose 70 mg/kg, route intraperitoneal.
Data set [2] can be described thus: Drug uptake in C57BL/6J mouse eye at 70 mg/kg, ip measured at 20 to 40 mins by CE-UV analysis. The format is ADME, organism-based. On the set-up: dose 70 mg/kg, route intraperitoneal. Conditions: in vivo; call rule not given here.
Data set [3] in a line: AUC in C57BL/6J mouse serum at 70 mg/kg, ip by CE-UV analysis. The arrangement: dose 70 mg/kg, route intraperitoneal. The format is ADME, organism-based, Plasma.
Data set [4] is described as follows: Ratio of AUC in C57BL/6J mouse CSF to AUC in C57BL/6J mouse serum. The format is ADME.
Data set [5] in a line: AUC in C57BL/6J mouse CSF at 70 mg/kg, ip by CE-UV analysis. Format: ADME, organism-based. The arrangement: dose 70 mg/kg, route intraperitoneal.
Data set [6] is described as follows: Cmax in C57BL/6J mouse CSF at 70 mg/kg, ip measured at 20 to 40 mins by CE-UV analysis. Format: ADME, organism-based, Cerebrospinal fluid. The arrangement: dose 70 mg/kg, route intraperitoneal.
A short description of data set [7]: Half life in C57BL/6J mouse serum at 70 mg/kg, ip by CE-UV analysis. The arrangement: dose 70 mg/kg, route intraperitoneal. Format: ADME, organism-based.

With `Cn1c(CCCC(=O)O)nc2cc(N(CCCl)CCCl)ccc21` [BENDAMUSTINE], the Drug uptake entry in data set [1] and in data set [2] was “Active” throughout. Moreover, the AUC (commonly concentration integrated over time) is 575 µM·h in data set [3] and 210 µM·h in data set [5]. Also, the “Ratio AUC” value in data set [4] is reported as 35%. Further, in data set [6], the Cmax (usually the peak of the concentration-time curve) came out at 393 µM. Moreover, the half-life (in general, the time in which the quantity being followed falls by half) in data set [7] was determined as 40 min.
